Assay results taken from US11131677B2 (University of Washington, priority 2018, dated 2021).

What was measured:
[1] = Oral testosterone pharmacokinetics and serum metabolite profile (LC-MS/MS) in men with acyline-induced experimental hypogonadism, with and without dutasteride; assay type: in vivo, human; conditions: for AUC0-24 h at T800, fold higher than with T200: T800 vs T200; for AUC 0-24 h / Cmax / Tmax / t½: serum; for Average AUC0-24 h with dutasteride, % with respect to T alone: T200+D vs T200; for Average AUC0-24 h with dutasteride, % as compared to T alone: T800+D vs T800; for AUC0-24 h, fold higher as compared to T AUC0-24 h: human serum, 800 mg dose
Procedure: T emulsion in sesame oil, mixed with milk, was administered orally to human subjects with acyline-induced experimental hypogonadism. The blood samples were collected and the serum was isolated and stored in −80° C. Steroids and their metabolites were extracted from serum using protein precipitation followed by solid-phase extraction and analyzed by UPLC coupled with SCIEX 6500 MS/MS.
Clinical study design is discussed below. All subjects provided written, informed consent prior to any study procedures. The study was approved by the University of Washington (UW) Investigational Review Board Committee.
While study was conducted with 200, 400 and 800 mg T dose, only T200 and T800 were quantified. […] Samples were mixed for 1 min by vortex mixing, and then centrifuged for 10 min at 3500×g at 4° C. […] Samples (2 mL) were loaded onto the cartridges and flow through was discarded.
Data were acquired by Analyst 1.6 software.

5-AR type 1 and 2 = test: Dutasteride co-treatment with T in human hepatocyte culture; conditions: for Effect of dutasteride co-treatment on metabolite formation from T: p<0.01 for decreases
Procedure: (§1) A targeted metabolomics study was performed on previously collected samples from an oral T pharmacokinetics (PK) study (800 mg). T and its primary and secondary metabolites in serum were quantified, and PK data of these steroids were analyzed using the non-compartmental method. […] Additionally, T-metabolism study was also performed in human hepatocytes for 1 h. The media and cell pellets were collected for subsequent metabolomics and proteomics analyses, respectively. Effect of dutasteride treatment on androgen metabolome was also investigated, both in vivo and in vitro.

UGT2B7 = UGT2B7 (Homo sapiens, UniProt P16662)
UGT2B15 = UGT2B15 (Homo sapiens, UniProt P54855)
Procedure: Oxazepam was used as a probe substrate for UGT2B15 activity by measuring oxazepam glucuronide formation (m/z 463.3→287.1, 269.1; DP 70; CE 20) with 10 μM oxazepam.

human hepatocytes = test: T metabolism in primary human hepatocytes (metabolite formation); conditions: for In vitro formation from T: primary human hepatocyte
Procedure: as §1

[2] = T200 + D (200 mg oral T with dutasteride)
[3] = T800 + D (800 mg oral T with dutasteride)

UGT2B15, sequence (P54855 24-530): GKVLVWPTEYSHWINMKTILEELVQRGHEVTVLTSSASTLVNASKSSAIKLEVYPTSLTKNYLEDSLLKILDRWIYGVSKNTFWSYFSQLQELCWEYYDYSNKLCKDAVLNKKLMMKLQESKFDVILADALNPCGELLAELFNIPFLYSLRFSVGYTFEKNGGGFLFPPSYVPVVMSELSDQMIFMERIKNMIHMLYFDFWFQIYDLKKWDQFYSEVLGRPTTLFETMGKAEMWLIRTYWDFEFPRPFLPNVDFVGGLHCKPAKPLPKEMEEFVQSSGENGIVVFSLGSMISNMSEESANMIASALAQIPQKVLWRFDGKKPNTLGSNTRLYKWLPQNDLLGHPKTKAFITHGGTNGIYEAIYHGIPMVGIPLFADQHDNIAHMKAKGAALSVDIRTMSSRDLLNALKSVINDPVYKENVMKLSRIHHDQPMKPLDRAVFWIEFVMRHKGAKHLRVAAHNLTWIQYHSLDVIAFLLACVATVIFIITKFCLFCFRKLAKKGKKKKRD
UGT2B7, sequence (P16662 24-529): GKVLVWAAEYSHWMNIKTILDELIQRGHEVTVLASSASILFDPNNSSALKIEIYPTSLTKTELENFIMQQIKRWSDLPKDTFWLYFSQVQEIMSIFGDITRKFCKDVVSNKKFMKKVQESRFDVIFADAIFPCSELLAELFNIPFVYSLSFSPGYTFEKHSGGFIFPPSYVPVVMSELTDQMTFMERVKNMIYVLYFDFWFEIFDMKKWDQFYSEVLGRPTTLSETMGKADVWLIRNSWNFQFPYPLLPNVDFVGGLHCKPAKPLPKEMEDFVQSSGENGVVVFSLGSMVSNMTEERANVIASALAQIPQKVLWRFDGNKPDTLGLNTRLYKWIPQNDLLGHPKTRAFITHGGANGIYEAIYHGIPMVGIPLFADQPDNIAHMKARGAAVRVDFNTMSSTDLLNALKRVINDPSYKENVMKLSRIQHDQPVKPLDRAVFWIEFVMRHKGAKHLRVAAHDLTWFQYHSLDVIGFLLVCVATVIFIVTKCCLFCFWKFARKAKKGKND

SMILES | Absolute level in pooled serum, fold of baseline eugonadal state ([1]; T200) [fold] | Average serum AUC0-24 h ([1]; T200) | Absolute level in pooled serum, fold of baseline eugonadal state ([1]; T800) [fold] | AUC 0-24 h ([1]; T200) [µM·h] | t½ ([1]; T200 (200 mg oral T)) [h] | AUC 0-24 h ([1]; T200 + D) [µM·h] | t½ [1, 2] [h] | AUC 0-24 h ([1]; T800) [µM·h] | t½ ([1]; T800 (800 mg oral T)) [h] | AUC 0-24 h ([1]; T800 + D) [µM·h] | t½ [1, 3] [h] | Effect of dutasteride co-treatment on metabolite formation from T (5-AR type 1 and 2) | Average AUC0-24 h with dutasteride, % with respect to T alone [1] [%] | Average AUC0-24 h with dutasteride, % as compared to T alone [1] [%] | AUC0-24 h, fold higher as compared to T AUC0-24 h [1] [fold] | further results
C[C@]12CCC(=O)C[C@@H]1CC[C@@H]1[C@@H]2CC[C@]2(C)[C@@H](O)CC[C@@H]12 [DHT, 5α-Dihydrotestosterone] | 0.6 | 26.5 nmol/L-h | 2.2 | 0.0265 | 17.6 | 0.0096 | 24.0 | 0.0874 | 6.9 | 0.0266 | 17.9 | significant decreases |  |  |  | Average AUC0-24 h with dutasteride, % lower than T alone ([1]; T200): 64%; Average AUC0-24 h with dutasteride, % lower than T alone ([1]; T800): 70%; AUC0-24 h at T800, fold higher than with T200 [1]: 3.3 fold; Cmax ([1]; T200): 2 nM; Tmax ([1]; T200): 2 h; Cmax ([1]; T200 + D): 0.8 nM; Tmax ([1]; T200 + D): 4 h; Cmax ([1]; T800): 8.4 nM; Tmax ([1]; T800): 2 h; Cmax ([1]; T800 + D): 1.8 nM; Tmax ([1]; T800 + D): 4 h
C[C@]12CCC(=O)C[C@@H]1CC[C@@H]1[C@@H]2CC[C@]2(C)[C@@H](O[C@@H]3O[C@H](C(=O)O)[C@@H](O)[C@H](O)[C@H]3O)CC[C@@H]12 [DHTG, DHT-glucuronide] | 7.5 |  | 40.6 |  |  |  |  |  |  |  |  |  |  |  |  | 
C[C@]12CC[C@@H](O[C@@H]3O[C@H](C(=O)O)[C@@H](O)[C@H](O)[C@H]3O)C[C@@H]1CC[C@@H]1[C@@H]2CC[C@]2(C)C(=O)CC[C@@H]12 [AG, Androsterone glucuronide] | 9.5 | 12,111 nmol/L-h | 29.7 | 12.1108 | 4.9 |  | 4.5 | 65.4278 | 4.5 | 14.8677 | 6.3 | significant decreases | 21 | 22 | 389 | 
Cc1ccc(NC(=O)c2ccc(CN3CCN(C)CC3)cc2)cc1Nc1nccc(-c2cccnc2)n1 [imatinib] |  |  |  |  |  |  |  |  |  |  |  |  |  |  |  | Inhibition of naloxone (UGT2B7) glucuronidation (UGT2B7): No significant inhibition; Inhibition of oxazepam (UGT2B15) glucuronidation (UGT2B15): No significant inhibition
C[C@]12CC[C@H]3[C@@H](CCC4=CC(=O)CC[C@@]43C)[C@@H]1CC[C@@H]2O[C@@H]1O[C@H](C(=O)O)[C@@H](O)[C@H](O)[C@H]1O [TG, Testosterone glucuronide] | 78 | 857.2 nmol/L-h | 277 | 0.8572 | 4.4 | 0.3734 | 4.3 | 14.163 | 3.6 | 8.5897 | 2.7 | No significant changes | 43 | 60 | 85 | Proportion of total T-related species in circulation ([1]; T dosed orally to men with experimental hypogonadism): 13%; Increase in TG/T ratio of dose-normalized AUC0-24 h ([1]; changing dose from 200 to 800 mg): 9.3 fold; Level in hepatocyte media, fold lower than AG (human hepatocytes; human hepatocytes, T-treated): 3.7 fold; In vitro formation from T (human hepatocytes): 42%
C[C@]12CC[C@@H](O)C[C@@H]1CC[C@@H]1[C@@H]2CC[C@]2(C)C(=O)CC[C@@H]12 [A, Androsterone] |  |  |  |  |  |  |  |  |  |  |  |  |  |  |  | Circulating level, % lower in dutasteride treated samples vs T alone ([1]; T200+D): 30%; Circulating level, % lower in dutasteride treated samples vs T alone ([1]; T800+D): 87%
C[C@]12C=CC(=O)N[C@@H]1CC[C@@H]1[C@@H]2CC[C@]2(C)[C@@H](C(=O)Nc3cc(C(F)(F)F)ccc3C(F)(F)F)CC[C@@H]12 [dutasteride, reference compound] |  |  |  |  |  |  |  |  |  |  |  |  |  |  |  | Inhibition of 5-AR type 1 and 2 mediated metabolism of T (5-AR type 1 and 2; co-treatment with T): complete inhibition
C[C@]12CC[C@@H](O[C@@H]3O[C@H](C(=O)O)[C@@H](O)[C@H](O)[C@H]3O)C[C@H]1CC[C@@H]1[C@@H]2CC[C@]2(C)C(=O)CC[C@@H]12 [EtioG, Etiocholanolone glucuronide] | 13 | 2160 nmol/L-h | 39.5 | 2.1604 | 5.2 |  | 10.5 | 14.9815 | 7.8 | 27.0917 | 9.9 |  | 151 | 180 | 87 | 
C[C@]12CC[C@H]3[C@@H](C[C@@H](O)C4=CC(=O)CC[C@@]43C)[C@@H]1CC[C@@H]2O [6β-OH-T, 6β-hydroxytestosterone] |  |  |  |  |  |  |  |  |  |  |  | significant decreases |  |  |  | 
C[C@]12CCC(=O)C=C1CC[C@@H]1[C@@H]2CC[C@]2(C)C(=O)CC[C@@H]12 [AED, Androstenedione] | 2.3 | 373.7 nmol/L-h | 14.9 | 0.3737 | 12.7 | 1.6349 | 8.3 | 1.5518 | 6.8 | 10.8444 | 5.2 | No significant changes |  |  |  | Circulating level, fold higher with dutasteride vs T alone ([1]; T200+D and T800+D): 5.7 fold; AUC0-24 h at T800, fold higher than with T200 [1]: 4.2 fold; Cmax ([1]; T200): 66.3 nM; Tmax ([1]; T200): 2 h; Cmax ([1]; T200 + D): 200 nM; Tmax ([1]; T200 + D): 2 h; Cmax ([1]; T800): 280 nM; Tmax ([1]; T800): 1 h; Cmax ([1]; T800 + D): 2300 nM; Tmax ([1]; T800 + D): 2 h; In vitro formation from T (human hepatocytes): 46%
